Results reported in paper PMC8999638, “Identification of Entry Inhibitors against Delta and Omicron Variants of SARS-CoV-2” (International Journal of Molecular Sciences, 2022).
Values joined by “and” are separate entries in the source; they are usually repeats but may differ in a detail not shown here. Equal values may be shown once. Where a name gives a salt, the structure may show the parent alone. Read-outs that look alike come from different tables or passages of the source.

Legend:
VERO E6 cells = settings: for CC50: read-out: VeroE6 CC50, VERO E6 cells, CellTiter-Glo
NanoBiT = experiment: Negative screening HiBiT assay (NanoBiT activity); assay type: cell-based; settings: for Negative Screening HiBiT Assay % Inhibition (20 μM): 20 μM drug; for Negative Screening HiBiT Assay % Inhibition (100 μM): 100 μM drug; for Negative Screening HiBiT Assay INHIBIT NanoBiT: >70% inhibition in 100 μM, then including >35% inhibition at 20 μM
[1] = system: spike-based pseudovirus (wild type) on SmBiT-ACE2 HeLa cells; experiment: microbe, parasite or virus in culture; assay type: cell-based, SARS-CoV-2
[2] = molecular target: RBD-ACE2 attachment (RBD of viral spike protein and ACE2 receptor) (Severe acute respiratory syndrome coronavirus 2, UniProt P0DTC2); experiment: cell-based; design: species or system SARS-CoV-2; human; settings: for inhibition at 20 µM / inhibition at 100 µM: HeLa; for inhibition at 20 µM: read-out: Positive Screening RBD Attachment Assay % Inhibition (20 μM); for inhibition at 100 µM: read-out: Positive Screening RBD Attachment Assay % Inhibition (100 μM)
in vitro = settings: African green monkey
SARS-CoV-2 = experiment: microbe, parasite or virus in culture; assay type: cell-based; settings: for EC50: Severe acute respiratory syndrome coronavirus 2, Vero C1008, 120 h, read-out: EC50 SARS-CoV-2 PRNT
[3] = VeroE6 CC50, VERO E6 cells, CellTiter-Glo
[4] = Pseudovirus, HeLa, read-out: EC50 Pseudovirus Wild Type

Compound: Gramicidin
- CC50 (VERO E6 cells): 3.9 µM
- Negative Screening HiBiT Assay % Inhibition (20 μM) (NanoBiT): 0%
- Negative Screening HiBiT Assay % Inhibition (100 μM) (NanoBiT): 35%
- Negative Screening HiBiT Assay INHIBIT NanoBiT (NanoBiT): No
- EC50 ([1]; read-out: EC50 Pseudovirus Wild Type): ~1200 nM and 1200 nM
- Positive Screening RBD Attachment Assay % Inhibition (100 μM) [2]: 95%
- Positive Screening RBD Attachment Assay Dose Response [2]: Yes
- EC50 ([2]; read-out: EC50 RBD Attachment): 5.3 µM

Compound: COC(=O)C1=C(C)NC(C)=C(C(=O)OCCN(C)Cc2ccccc2)C1c1cccc([N+](=O)[O-])c1 (centres unmarked) [Nicardipine hydrochloride]
- Negative Screening HiBiT Assay % Inhibition (20 μM) (NanoBiT): 64%
- Negative Screening HiBiT Assay % Inhibition (100 μM) (NanoBiT): 88%
- Negative Screening HiBiT Assay INHIBIT NanoBiT (NanoBiT): Yes
- Positive Screening RBD Attachment Assay Dose Response [2]: Yes
- inhibition at 20 µM [2]: 58%
- inhibition at 100 µM [2]: 86%

Compound: CN(C)c1ccc(C(=C2C=CC(=[N+](C)C)C=C2)c2ccc(N(C)C)cc2)cc1 [Crystal Violet]
- Negative Screening HiBiT Assay % Inhibition (20 μM) (NanoBiT): 17%
- Negative Screening HiBiT Assay % Inhibition (100 μM) (NanoBiT): 86%
- Negative Screening HiBiT Assay INHIBIT NanoBiT (NanoBiT): Yes
- Positive Screening RBD Attachment Assay Dose Response [2]: Yes
- inhibition at 20 µM [2]: 73%
- inhibition at 100 µM [2]: 99%

Compound: Clc1ccc(COC(Cn2ccnc2)c2ccc(Cl)cc2Cl)c(Cl)c1 (centres unmarked) [Miconazole nitrate]
- CC50 (VERO E6 cells): 16.9 µM
- Negative Screening HiBiT Assay % Inhibition (20 μM) (NanoBiT): 3%
- Negative Screening HiBiT Assay % Inhibition (100 μM) (NanoBiT): 12%
- Negative Screening HiBiT Assay INHIBIT NanoBiT (NanoBiT): No

Compound: O=C1CCc2ccc(OCCCCN3CCN(c4cccc(Cl)c4Cl)CC3)cc2N1 [Aripiprazole]
- Negative Screening HiBiT Assay % Inhibition (20 μM) (NanoBiT): 13%
- Negative Screening HiBiT Assay % Inhibition (100 μM) (NanoBiT): 21%
- Negative Screening HiBiT Assay INHIBIT NanoBiT (NanoBiT): No
- CC50 (in vitro; [3]): 14 µM

Compound: CC(=O)Oc1ccccc1C(=O)Nc1ncc([N+](=O)[O-])s1 [Nitazoxanide]
- Negative Screening HiBiT Assay % Inhibition (20 μM) (NanoBiT): 77%
- Negative Screening HiBiT Assay % Inhibition (100 μM) (NanoBiT): 95%
- Negative Screening HiBiT Assay INHIBIT NanoBiT (NanoBiT): Yes
- Positive Screening RBD Attachment Assay Dose Response [2]: Yes
- inhibition at 20 µM [2]: 69%
- inhibition at 100 µM [2]: 93%

Compound: Cc1cc(C#N)cc(C)c1Oc1nc(Nc2ccc(C#N)cc2)nc(N)c1Br [Etravirine]
- Cytotoxicity to VeroE6 cells (VERO E6 cells; VeroE6 cells): not toxic
- EC50 (SARS-CoV-2): 7.7 µM
- Negative Screening HiBiT Assay % Inhibition (20 μM) (NanoBiT): 0%
- Negative Screening HiBiT Assay % Inhibition (100 μM) (NanoBiT): 31%
- Negative Screening HiBiT Assay INHIBIT NanoBiT (NanoBiT): No
- EC50 [1, 4]: 6 nM
- EC50 ([1]; Pseudovirus, HeLa, read-out: EC50 pseudovirus neutralization assay): 5.8 nM
- EC50 [2]: 2.3 µM
- Positive Screening RBD Attachment Assay Dose Response [2]: Yes
- inhibition at 20 µM [2]: > 70%
- inhibition at 100 µM [2]: 90%
- CC50 (in vitro; [3]): > 100 µM

Compound: C[C@@H]1CCO[C@H]2Cn3cc(C(=O)NCc4ccc(F)cc4F)c(=O)c(O)c3C(=O)N12 [Dolutegravir sodium]
- Cytotoxicity to VeroE6 cells (VERO E6 cells; VeroE6 cells): not toxic
- EC50 (SARS-CoV-2): 4.2 µM
- Negative Screening HiBiT Assay % Inhibition (20 μM) (NanoBiT): 1%
- Negative Screening HiBiT Assay % Inhibition (100 μM) (NanoBiT): 62%
- Negative Screening HiBiT Assay INHIBIT NanoBiT (NanoBiT): No
- EC50 ([1]; Pseudovirus, HeLa, read-out: EC50 (nM) (Wild type)): 22.9 nM
- EC50 [1, 4]: 40 nM
- EC50 [2]: 14.6 µM
- Positive Screening RBD Attachment Assay Dose Response [2]: Yes
- inhibition at 20 µM [2]: > 70%
- inhibition at 100 µM [2]: 96%
- CC50 (in vitro; [3]): > 100 µM

Compound: COCCOC(=O)C1=C(C)NC(C)=C(C(=O)OC(C)C)C1c1cccc([N+](=O)[O-])c1 (centres unmarked) [Nimodipine]
- Negative Screening HiBiT Assay % Inhibition (20 μM) (NanoBiT): 79%
- Negative Screening HiBiT Assay % Inhibition (100 μM) (NanoBiT): 97%
- Negative Screening HiBiT Assay INHIBIT NanoBiT (NanoBiT): Yes
- Positive Screening RBD Attachment Assay Dose Response [2]: Yes
- inhibition at 20 µM [2]: 64%
- inhibition at 100 µM [2]: 96%

Compound: CCCCc1oc2ccc(NS(C)(=O)=O)cc2c1C(=O)c1ccc(OCCCN(CCCC)CCCC)cc1 [Dronedarone hydrochloride]
- Negative Screening HiBiT Assay % Inhibition (20 μM) (NanoBiT): 21%
- Negative Screening HiBiT Assay % Inhibition (100 μM) (NanoBiT): 86%
- Negative Screening HiBiT Assay INHIBIT NanoBiT (NanoBiT): Yes
- Positive Screening RBD Attachment Assay Dose Response [2]: Yes
- inhibition at 20 µM [2]: 41%
- inhibition at 100 µM [2]: 93%

Compound: OCCOc1ccc(/C(=C(/CCCl)c2ccccc2)c2ccccc2)cc1 [Ospemifene]
- Cytotoxicity to VeroE6 cells (VERO E6 cells): not toxic
- Negative Screening HiBiT Assay % Inhibition (20 μM) (NanoBiT): 3%
- Negative Screening HiBiT Assay % Inhibition (100 μM) (NanoBiT): 8%
- Negative Screening HiBiT Assay INHIBIT NanoBiT (NanoBiT): No
- Positive Screening RBD Attachment Assay Dose Response [2]: Yes
- EC50 ([2]; EC50 RBD Attachment): 56.2 µM
- inhibition at 20 µM [2]: 39%
- inhibition at 100 µM [2]: 68%
- CC50 (in vitro; VeroE6 CC50): > 100 µM

Compound: CCCC(=O)OCOC(=O)C1=C(C)NC(C)=C(C(=O)OC)C1c1cccc(Cl)c1Cl (centres unmarked) [Clevidipine butyrate]
- Negative Screening HiBiT Assay % Inhibition (20 μM) (NanoBiT): 79%
- Negative Screening HiBiT Assay % Inhibition (100 μM) (NanoBiT): 93%
- Negative Screening HiBiT Assay INHIBIT NanoBiT (NanoBiT): Yes
- Positive Screening RBD Attachment Assay % Inhibition (20 μM) [2]: 69%
- Positive Screening RBD Attachment Assay % Inhibition (100 μM) [2]: 93%
- Positive Screening RBD Attachment Assay Dose Response [2]: Yes

Compound: CCOC(=O)C1=C(C)NC(C)=C(C(=O)OC)C1c1cccc(Cl)c1Cl (centres unmarked) [Felodipine]
- Negative Screening HiBiT Assay % Inhibition (20 μM) (NanoBiT): 88%
- Negative Screening HiBiT Assay % Inhibition (100 μM) (NanoBiT): 99%
- Negative Screening HiBiT Assay INHIBIT NanoBiT (NanoBiT): Yes
- Positive Screening RBD Attachment Assay Dose Response [2]: Yes
- inhibition at 20 µM [2]: 63%
- inhibition at 100 µM [2]: 96%

Compound: CCCCCCCCCCCCCCCC[N+](C)(C)CCN(Cc1ccc(OC)cc1)c1ncccn1 [Thonzonium Bromide]
- Negative Screening HiBiT Assay % Inhibition (20 μM) (NanoBiT): 36%
- Negative Screening HiBiT Assay % Inhibition (100 μM) (NanoBiT): 52%
- Negative Screening HiBiT Assay INHIBIT NanoBiT (NanoBiT): Yes
- Positive Screening RBD Attachment Assay Dose Response [2]: Yes
- inhibition at 20 µM [2]: 93%
- inhibition at 100 µM [2]: 99%

Compound: CC[C@H](C)[C@H]1O[C@]2(CC[C@@H]1C)C[C@@H]1C[C@@H](C/C=C(\C)[C@@H](O[C@H]3C[C@H](OC)[C@@H](O[C@H]4C[C@H](OC)[C@@H](O)[C@H](C)O4)[C@H](C)O3)[C@@H](C)/C=C/C=C3\CO[C@@H]4[C@H](O)C(C)=C[C@@H](C(=O)O1)[C@]34O)O2 [Ivermectin]
- blocked SARS-CoV-2 infection (PRNT) (SARS-CoV-2; 10 μM): 60%
- Negative Screening HiBiT Assay % Inhibition (20 μM) (NanoBiT): 0%
- Negative Screening HiBiT Assay % Inhibition (100 μM) (NanoBiT): 4%
- Negative Screening HiBiT Assay INHIBIT NanoBiT (NanoBiT): No
- EC50 [1, 4]: 5900 nM
- Positive Screening RBD Attachment Assay Dose Response [2]: Yes
- inhibition at 20 µM [2]: 29%
- inhibition at 100 µM [2]: 68%
- EC50 ([2]; read-out: EC50 RBD Attachment): 22.8 µM
- CC50 (in vitro; [3]): 11.9 µM

Compound: CC1(C)CCC(CN2CCN(c3ccc(C(=O)NS(=O)(=O)c4ccc(NCC5CCOCC5)c([N+](=O)[O-])c4)c(Oc4cnc5[nH]ccc5c4)c3)CC2)=C(c2ccc(Cl)cc2)C1 [ABT-199]
- Negative Screening HiBiT Assay % Inhibition (20 μM) (NanoBiT): 0%
- Negative Screening HiBiT Assay % Inhibition (100 μM) (NanoBiT): 43%
- Negative Screening HiBiT Assay INHIBIT NanoBiT (NanoBiT): No
- EC50 [2]: 39.1 µM
- Positive Screening RBD Attachment Assay Dose Response [2]: Yes
- inhibition at 20 µM [2]: 51%
- inhibition at 100 µM [2]: 96%
- CC50 (in vitro; [3]): 17.3 µM

Compound: CC(C)(C)c1nc(-c2cccc(NS(=O)(=O)c3c(F)cccc3F)c2F)c(-c2ccnc(N)n2)s1 [Dabrafenib (GSK2118436), Dabrafenib]
- Negative Screening HiBiT Assay % Inhibition (20 μM) (NanoBiT): 88%
- Negative Screening HiBiT Assay % Inhibition (100 μM) (NanoBiT): 97%
- Negative Screening HiBiT Assay INHIBIT NanoBiT (NanoBiT): Yes
- Positive Screening RBD Attachment Assay Dose Response [2]: Yes
- inhibition at 20 µM [2]: 85%
- inhibition at 100 µM [2]: 96%

Compound: Nc1ccc(/N=N/c2ccccc2)c(N)n1 [Phenazopyridine hydrochloride]
- Negative Screening HiBiT Assay % Inhibition (20 μM) (NanoBiT): 48%
- Negative Screening HiBiT Assay % Inhibition (100 μM) (NanoBiT): 83%
- Negative Screening HiBiT Assay INHIBIT NanoBiT (NanoBiT): Yes
- Positive Screening RBD Attachment Assay Dose Response [2]: Yes
- inhibition at 20 µM [2]: 52%
- inhibition at 100 µM [2]: 91%

Compound: O=C1C(O)=C([C@H]2CC[C@H](c3ccc(Cl)cc3)CC2)C(=O)c2ccccc21 [Atovaquone]
- Negative Screening HiBiT Assay % Inhibition (20 μM) (NanoBiT): 54%
- Negative Screening HiBiT Assay % Inhibition (100 μM) (NanoBiT): 96%
- Negative Screening HiBiT Assay INHIBIT NanoBiT (NanoBiT): Yes
- Positive Screening RBD Attachment Assay Dose Response [2]: Yes
- inhibition at 20 µM [2]: 39%
- inhibition at 100 µM [2]: 95%

Compound: Clc1ccc(COC(Cn2ccnc2)c2ccc(Cl)cc2Cl)c(Cl)c1 (centres unmarked) [Miconazole]
- Negative Screening HiBiT Assay % Inhibition (20 μM) (NanoBiT): 6%
- Negative Screening HiBiT Assay % Inhibition (100 μM) (NanoBiT): 15%
- Negative Screening HiBiT Assay INHIBIT NanoBiT (NanoBiT): No
- CC50 (in vitro; [3]): 14 µM
